Laboratory results from patent US20030203975A1, “Anti-cancer agents” (priority 1998, published 2003).

Tests used:
Topoisomerase IIα [1] = molecular target: T1, Topoisomerase IIα (Homo sapiens, UniProt P11388); experiment: Topo II relaxation assay; format: biochemical; set-up: key: ‘—’ = Not active; settings: unit not given; compound at 1, 10, 25 and 50 μM in protocol
Procedure: (§1) Topo II Relaxation Assay Protocol
(§2) 10×Topo II Relaxation Buffer
(§3) 500 mM Tris-HCl (pH 7.5); 100 mM mgCI2; 50 mM EDTA; 300 mg/mI BSA; 10 mM DTT; −20° C.

Topoisomerase IIβ [2] = molecular target: T2, Topoisomerase IIβ (Homo sapiens, UniProt Q02880); experiment: Topo II relaxation assay; format: biochemical; set-up: key: ‘—’ = Not active; settings: unit not given; compound at 1, 10, 25 and 50 μM in protocol
Procedure: as §1, §2, §3

[3] = tested on: MAC 15A adenocarcinoma of the colon; experiment: In vitro chemosensitivity against MAC 15A adenocarcinoma (MTT assay); format: cell-based; settings: Mus musculus, MAC15A, 96 hours continuous exposure
Procedure: In Vitro Activity Against MAC 15A Adenocarcinoma.
MAC 15A cells were grown in RPMI 1640 medium supplemented with 10% foetal calf serum containing a 1% antibiotic mixture under standard tissue culture conditions and were maintained at 37° C. in a humidified atmosphere of 5% CO2 in air. Cells were harvested from a stock culture in exponential growth phase and plated in 96-well flat-bottomed plates to achieve a final density of 2×10^3 cells per well. After 2 hours incubation medium was replaced with either fresh medium containing 0.5% DMSO (control) or medium containing test compound dissolved in DMSO at a concentrations from 10 mM to 1 nM. Chemosensitivity was assessed using MTT assay by the method of Plumb et al Cancer Research 49 (1989) 4435-4440.
Following 96 hours continuous exposure to drug at 37° C. cells were incubated with fresh drug-free medium immediately prior to addition of MTT solution (5 mg/ml). Medium and MTT were removed after 4 hours and 150 μl of DMSO was added. For each plate the absorbance of the resulting solution was measured at the analytical wavelength 550 nm for formazan product, using a Labsystem Mutiskan. IC50 values were obtained from growth curves of drug concentration against % survival and are expressed in μm.

Topoisomerase IIα [4] = molecular target: T1, Topoisomerase IIα; experiment: Topo II decatenation assay; format: biochemical; set-up: key: ‘—’ = Not active; settings: unit not given; kDNA substrate; compound at 1, 10, 25 and 50 μM in protocol
Procedure: (§4) Topisomerase Decatenation Assay.
(§5) This method uses catenated DNA substrate prepared from the kinetoplast of the insect trypanosome Crithidia fasciculata. Upon incubation with topo II, which engages DNA in a double stranded breakage-reunion cycle, DNA minicircles are released. Addition of topo-inhibiting drugs may prevent decatenation.
(§6) Topo II Decatenation Assay Protocol
(§7) This assay is the same as the Topo II Relaxation assay except that the pBR 322 Plasmid DNA is replaced with kDNA.
(§8) Results are included in Table 3 below

Topoisomerase IIβ [5] = molecular target: T2, Topoisomerase IIβ; experiment: Topo II decatenation assay; format: biochemical; settings: unit not given; kDNA substrate; compound at 1, 10, 25 and 50 μM in protocol
Procedure: as §4, §5, §6, §7, §8

Topoisomerase I = molecular target: T3, Topoisomerase I (Homo sapiens, UniProt P11387); experiment: Topo I cleavage assay; format: biochemical; settings: at 10 μM
T3 sequence (P11387 1-765): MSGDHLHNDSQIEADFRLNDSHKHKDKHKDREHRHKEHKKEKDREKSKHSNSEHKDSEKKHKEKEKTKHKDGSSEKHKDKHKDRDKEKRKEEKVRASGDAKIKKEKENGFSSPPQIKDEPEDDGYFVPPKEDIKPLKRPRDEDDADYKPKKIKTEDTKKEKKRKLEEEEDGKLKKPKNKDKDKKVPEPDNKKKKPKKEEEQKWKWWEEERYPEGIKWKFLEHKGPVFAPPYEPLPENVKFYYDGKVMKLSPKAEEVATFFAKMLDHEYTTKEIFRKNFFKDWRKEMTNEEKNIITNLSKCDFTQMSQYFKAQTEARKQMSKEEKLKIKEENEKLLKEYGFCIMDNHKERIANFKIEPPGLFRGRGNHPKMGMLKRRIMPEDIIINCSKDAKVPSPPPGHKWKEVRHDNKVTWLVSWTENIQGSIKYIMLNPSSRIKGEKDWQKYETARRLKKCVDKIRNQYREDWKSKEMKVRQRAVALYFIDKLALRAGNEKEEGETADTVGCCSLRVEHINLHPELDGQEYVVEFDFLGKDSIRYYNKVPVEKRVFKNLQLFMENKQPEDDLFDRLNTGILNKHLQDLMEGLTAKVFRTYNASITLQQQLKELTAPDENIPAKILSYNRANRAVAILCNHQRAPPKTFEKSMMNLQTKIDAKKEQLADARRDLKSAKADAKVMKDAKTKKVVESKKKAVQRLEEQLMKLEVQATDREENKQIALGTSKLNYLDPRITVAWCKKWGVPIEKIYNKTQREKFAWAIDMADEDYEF

T1 sequence (P11388 whole entry): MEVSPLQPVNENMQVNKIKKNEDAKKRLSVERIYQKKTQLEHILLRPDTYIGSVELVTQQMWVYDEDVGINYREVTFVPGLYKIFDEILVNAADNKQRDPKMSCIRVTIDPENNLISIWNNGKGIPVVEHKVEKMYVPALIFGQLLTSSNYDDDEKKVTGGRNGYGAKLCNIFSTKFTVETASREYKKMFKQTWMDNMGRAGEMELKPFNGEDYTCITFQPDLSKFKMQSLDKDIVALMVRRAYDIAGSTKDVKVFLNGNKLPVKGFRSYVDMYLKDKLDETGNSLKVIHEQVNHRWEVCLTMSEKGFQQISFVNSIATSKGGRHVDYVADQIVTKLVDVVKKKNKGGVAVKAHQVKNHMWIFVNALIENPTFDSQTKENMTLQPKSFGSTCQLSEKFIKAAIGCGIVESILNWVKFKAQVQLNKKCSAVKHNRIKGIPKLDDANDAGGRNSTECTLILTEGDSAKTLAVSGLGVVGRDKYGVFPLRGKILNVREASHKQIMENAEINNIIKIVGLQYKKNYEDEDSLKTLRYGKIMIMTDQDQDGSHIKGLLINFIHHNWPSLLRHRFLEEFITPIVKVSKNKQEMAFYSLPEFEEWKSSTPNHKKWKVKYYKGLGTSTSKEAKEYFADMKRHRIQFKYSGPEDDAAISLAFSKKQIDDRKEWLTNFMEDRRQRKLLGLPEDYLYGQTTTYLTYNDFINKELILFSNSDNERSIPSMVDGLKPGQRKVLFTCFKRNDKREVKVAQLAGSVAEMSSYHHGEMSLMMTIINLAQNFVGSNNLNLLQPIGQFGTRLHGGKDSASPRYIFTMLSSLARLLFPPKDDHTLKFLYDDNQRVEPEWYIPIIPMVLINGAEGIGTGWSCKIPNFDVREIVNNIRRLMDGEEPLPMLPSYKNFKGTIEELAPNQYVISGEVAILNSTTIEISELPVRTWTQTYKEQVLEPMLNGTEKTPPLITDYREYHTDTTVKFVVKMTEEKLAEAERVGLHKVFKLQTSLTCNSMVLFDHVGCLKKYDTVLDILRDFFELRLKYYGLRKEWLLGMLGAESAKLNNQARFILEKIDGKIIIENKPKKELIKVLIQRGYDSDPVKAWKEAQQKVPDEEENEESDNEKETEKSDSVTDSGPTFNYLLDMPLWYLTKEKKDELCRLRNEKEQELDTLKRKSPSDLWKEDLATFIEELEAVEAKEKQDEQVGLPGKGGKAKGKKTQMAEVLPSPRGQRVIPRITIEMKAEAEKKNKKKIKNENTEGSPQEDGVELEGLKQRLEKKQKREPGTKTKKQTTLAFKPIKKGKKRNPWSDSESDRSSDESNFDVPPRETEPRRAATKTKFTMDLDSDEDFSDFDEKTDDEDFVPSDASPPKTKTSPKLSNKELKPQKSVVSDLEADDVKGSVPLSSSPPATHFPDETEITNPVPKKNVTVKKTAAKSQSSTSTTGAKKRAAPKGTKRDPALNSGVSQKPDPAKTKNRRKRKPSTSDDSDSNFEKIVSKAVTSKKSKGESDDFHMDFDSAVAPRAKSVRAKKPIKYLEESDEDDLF
T2 sequence (Q02880 whole entry): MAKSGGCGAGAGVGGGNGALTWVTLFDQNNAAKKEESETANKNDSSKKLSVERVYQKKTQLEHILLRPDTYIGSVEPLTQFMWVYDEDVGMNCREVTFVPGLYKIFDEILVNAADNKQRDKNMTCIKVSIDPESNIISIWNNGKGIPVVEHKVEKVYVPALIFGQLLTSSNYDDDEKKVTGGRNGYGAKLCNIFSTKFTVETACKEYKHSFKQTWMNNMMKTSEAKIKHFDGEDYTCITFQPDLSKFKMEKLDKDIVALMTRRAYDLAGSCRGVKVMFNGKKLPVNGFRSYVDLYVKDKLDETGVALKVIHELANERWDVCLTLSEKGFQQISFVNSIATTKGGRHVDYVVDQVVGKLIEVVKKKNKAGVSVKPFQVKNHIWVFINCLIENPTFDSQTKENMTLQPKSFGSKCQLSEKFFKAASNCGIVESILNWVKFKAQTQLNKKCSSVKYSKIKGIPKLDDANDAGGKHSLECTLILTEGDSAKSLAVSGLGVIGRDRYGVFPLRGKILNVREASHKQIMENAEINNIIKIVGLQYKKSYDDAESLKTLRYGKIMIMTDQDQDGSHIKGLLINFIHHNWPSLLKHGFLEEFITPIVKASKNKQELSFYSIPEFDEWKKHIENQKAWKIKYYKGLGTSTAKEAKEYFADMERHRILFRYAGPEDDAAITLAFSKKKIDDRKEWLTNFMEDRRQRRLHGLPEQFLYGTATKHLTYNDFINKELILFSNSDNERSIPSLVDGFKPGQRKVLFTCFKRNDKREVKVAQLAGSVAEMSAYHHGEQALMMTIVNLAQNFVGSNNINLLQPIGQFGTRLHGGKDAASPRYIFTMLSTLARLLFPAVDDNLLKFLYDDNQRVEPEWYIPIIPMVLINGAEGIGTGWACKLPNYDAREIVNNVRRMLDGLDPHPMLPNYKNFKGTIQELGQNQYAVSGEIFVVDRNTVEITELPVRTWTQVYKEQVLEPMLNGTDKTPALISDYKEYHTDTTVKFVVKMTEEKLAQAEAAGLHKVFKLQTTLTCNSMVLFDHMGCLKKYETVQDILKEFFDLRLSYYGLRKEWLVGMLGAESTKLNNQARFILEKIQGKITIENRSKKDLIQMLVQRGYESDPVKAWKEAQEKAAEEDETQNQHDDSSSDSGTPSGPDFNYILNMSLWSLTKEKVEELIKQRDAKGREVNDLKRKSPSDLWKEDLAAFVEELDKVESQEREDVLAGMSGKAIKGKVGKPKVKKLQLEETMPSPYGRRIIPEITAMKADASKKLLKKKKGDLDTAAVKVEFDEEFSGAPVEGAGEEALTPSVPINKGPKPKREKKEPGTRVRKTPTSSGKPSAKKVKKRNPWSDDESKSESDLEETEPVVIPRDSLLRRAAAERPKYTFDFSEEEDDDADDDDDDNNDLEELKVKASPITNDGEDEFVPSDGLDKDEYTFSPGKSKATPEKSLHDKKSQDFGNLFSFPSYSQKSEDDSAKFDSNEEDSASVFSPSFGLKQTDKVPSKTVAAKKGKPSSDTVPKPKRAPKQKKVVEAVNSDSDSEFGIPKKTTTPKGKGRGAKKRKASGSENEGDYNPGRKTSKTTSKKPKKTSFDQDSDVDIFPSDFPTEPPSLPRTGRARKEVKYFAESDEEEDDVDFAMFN

Compound	TopIIα Relax. (Topoisomerase IIα [1])	TopIIβ Relax. (Topoisomerase IIβ [2])	IC50 [3]	TopIIα Decat. (Topoisomerase IIα [4])	TopIIβ Decat. (Topoisomerase IIβ [5])	nicked plasmid (Topoisomerase I)
O=C(O)C(F)(F)F.O=C1c2ccccc2C(=O)c2c(NCCCCOC(=O)[C@@H]3CCCN3)cccc21 [Example 47, 1-[4-(L-prolyloxy)butylamino]anthracene-9,10-dione trifluoroacetate]	5	10				
CC(C)[C@H](N)C(=O)OCCCNc1ccc(O)c2c1C(=O)c1c(O)cccc1C2=O.O=C(O)C(F)(F)F [Example 57, 4,8-dihydroxy-1-[3-(L-valyloxy)propylamino]anthracene-9,10-dione trifluoroacetate]	—	25	3.8 µM	—	25	
CC(C)[C@@H](N)C(=O)OCCCNc1cccc2c1C(=O)c1ccccc1C2=O.O=C(O)C(F)(F)F [Example 37, 1-[3-(D-valyloxy)propylamino]anthracene-9,10-dione trifluoroacetate]	—	—		—	25	
N[C@@H](Cc1c[nH]c2ccccc12)C(=O)OCCCNc1cccc2c1C(=O)c1ccccc1C2=O.O=C(O)C(F)(F)F [Example 41, 1-[3-(L-tryptophyloxy)propylamino]anthracene-9,10-dione trifluoro-acetate]	—					
CC[C@@]1(O)C(=O)OCc2c1cc1n(c2=O)Cc2cc3ccccc3nc2-1 [campothecin, reference compound]						90%
CC(C)[C@H](N)C(=O)OCCCNc1cccc2c1C(=O)c1ccccc1C2=O.O=C(O)C(F)(F)F [Example 35, 1-[3-(L-valyloxy)propylamino]anthracene-9,10-dione trifluoroacetate]	—	—	2.9 µM			
O=C(O)C(F)(F)F.O=C1c2ccccc2C(=O)c2c(NCCCCOC(=O)[C@H]3CCCN3)cccc21 [Example 49, 1-[4-(D-prolyloxy)butylamino]anthracene-9,10-dione trifluoroacetate]	25	25				
